From ChEMBL document CHEMBL1201862, “PubChem BioAssay data set” (2004)
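Method: 48-hour compound exposure of cells in 96-well plates, five concentrations, linear interpolation of endpoints. GI50 = concentration required for 50% inhibition of growth.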 Calls of active or inactive are those of the source. Cut-off read from the data, not from the text of the source: active = GI50 up to about 1.1 µM and inactive = higher.

Columns and labels:
Assay in all cases: NCI anticancer screen, dose series, 48 h
786-0 = system: 786-0
A498 = system: A498
CCRF-CEM = system: CCRF-CEM
COLO 205 = system: COLO 205
HCT-116 = system: HCT-116
HOP-92 = system: HOP-92
IGROV-1 = system: IGROV-1
LOX IMVI = system: LOX IMVI
M14 = system: M14
MDA-MB-435 = system: MDA-MB-435
NCI-H522 = system: NCI-H522
RXF 393 = system: RXF 393
SF-539 = system: SF-539
SK-MEL-2 = system: SK-MEL-2
SN12C = system: SN12C
SNB-19 = system: SNB-19
SW-620 = system: SW-620
T47D = system: T47D
TK-10 = system: TK-10
UACC-257 = system: UACC-257

| Structure (SMILES) | GI50 (786-0) | GI50 (A498) | GI50 (CCRF-CEM) | GI50 (COLO 205) | GI50 (HCT-116) | GI50 (HOP-92) | GI50 (IGROV-1) | GI50 (LOX IMVI) | GI50 (M14) | GI50 (MDA-MB-435) | GI50 (NCI-H522) | GI50 (RXF 393) | GI50 (SF-539) | GI50 (SK-MEL-2) | GI50 (SN12C) | GI50 (SNB-19) | GI50 (SW-620) | GI50 (T47D) | GI50 (TK-10) | GI50 (UACC-257) |
| --- | --- | --- | --- | --- | --- | --- | --- | --- | --- | --- | --- | --- | --- | --- | --- | --- | --- | --- | --- | --- |
| CSc1nc2ccccc2c(=O)n1-c1cccc(C)c1 | > 100 µM (inactive) | 19.9 µM (inactive) | 32.6 µM (inactive) | 48.9 µM (inactive) | 47.8 µM (inactive) | 26.5 µM (inactive) | 39.2 µM (inactive) | 53.1 µM (inactive) | 95.5 µM (inactive) | 29.1 µM (inactive) | 67.8 µM (inactive) | 81.8 µM (inactive) | 78.9 µM (inactive) | 70.5 µM (inactive) | > 100 µM (inactive) | > 100 µM (inactive) | 31.9 µM (inactive) | 29.2 µM (inactive) | > 100 µM (inactive) | 31.1 µM (inactive) |
| COC(=O)C(Cc1c[nH]c2ccccc12)NC1=Nc2ccncc2S(=O)(=O)N1c1cccc(OC(C)C)c1 (stereo not given) | 34.2 µM (inactive) | 82 µM (inactive) | 20.6 µM (inactive) | 30.3 µM (inactive) | 35.4 µM (inactive) | 3.94 µM (inactive) | 18.7 µM (inactive) | 26.4 µM (inactive) | 41.6 µM (inactive) | 45.9 µM (inactive) | 21.4 µM (inactive) | > 100 µM (inactive) | 80.5 µM (inactive) | 39.7 µM (inactive) | 48.1 µM (inactive) | 68.1 µM (inactive) | 92.5 µM (inactive) | 36.1 µM (inactive) | > 100 µM (inactive) | > 100 µM (inactive) |
| O=C(O)CNC(=O)c1ccc(-c2ccccc2)cc1 | > 100 µM (inactive) | > 100 µM (inactive) | > 100 µM (inactive) | > 100 µM (inactive) | > 100 µM (inactive) | 61.1 µM (inactive) | > 100 µM (inactive) | > 100 µM (inactive) | > 100 µM (inactive) | > 100 µM (inactive) | > 100 µM (inactive) | > 100 µM (inactive) | > 100 µM (inactive) | > 100 µM (inactive) | > 100 µM (inactive) | > 100 µM (inactive) | > 100 µM (inactive) | > 100 µM (inactive) | > 100 µM (inactive) | > 100 µM (inactive) |
| NC1(C(=O)OCc2ccccc2)CCCC1 | 18 µM (inactive) | 41.3 µM (inactive) | 11.4 µM (inactive) | 28.1 µM (inactive) | 18 µM (inactive) | 14.4 µM (inactive) | 18.5 µM (inactive) | 18.2 µM (inactive) | 14.5 µM (inactive) | 15.1 µM (inactive) | 7.06 µM (inactive) | 17.4 µM (inactive) | 11.2 µM (inactive) | 17.9 µM (inactive) | 25.1 µM (inactive) | 21.2 µM (inactive) | 36.6 µM (inactive) | 25.3 µM (inactive) | 82.4 µM (inactive) | 19.2 µM (inactive) |
| COc1cc2c(cc1OC)C(=O)/C(=C/c1ccccc1)CC2 | 34.9 µM (inactive) | 26.1 µM (inactive) | 5.83 µM (inactive) | 22.1 µM (inactive) | 23.8 µM (inactive) | 24.8 µM (inactive) | 38.9 µM (inactive) | 32.7 µM (inactive) | > 100 µM (inactive) | 8.09 µM (inactive) | 52.6 µM (inactive) | > 100 µM (inactive) | 47.5 µM (inactive) | 14.1 µM (inactive) | 43.7 µM (inactive) | 27.7 µM (inactive) | 40.4 µM (inactive) | 26.1 µM (inactive) | 33.4 µM (inactive) | 61.2 µM (inactive) |
| COC(=O)[C@@H]1[C@H](OC(C)=O)CCC2[C@@]3(C[C@@H](c4ccoc4)O[C@@H]3OC)[C@H](C)CC[C@]21C(=O)OC (stereo not given in full) | > 25 µM (inactive) | > 25 µM (inactive) | > 25 µM (inactive) | > 25 µM (inactive) | > 25 µM (inactive) | > 25 µM (inactive) | > 25 µM (inactive) | > 25 µM (inactive) | > 25 µM (inactive) | > 25 µM (inactive) | > 25 µM (inactive) | > 25 µM (inactive) | > 25 µM (inactive) | > 25 µM (inactive) | > 25 µM (inactive) | > 25 µM (inactive) | > 25 µM (inactive) | > 25 µM (inactive) | > 25 µM (inactive) | > 25 µM (inactive) |
| Cc1c(C)c(S(=O)(=O)N(CCCCCN)OCCCN)c(C)c2c1OC(C)(C)CC2 | 6.62 µM (inactive) | 18.6 µM (inactive) | 2.6 µM (inactive) | 12.2 µM (inactive) | 5.98 µM (inactive) | 18.3 µM (inactive) | 2.82 µM (inactive) | 5.4 µM (inactive) | 27.7 µM (inactive) | 5.82 µM (inactive) | 6.28 µM (inactive) | 11.6 µM (inactive) | > 25.3 µM (inactive) | 4.75 µM (inactive) | 16.6 µM (inactive) | 7.91 µM (inactive) | 7.8 µM (inactive) | 16.6 µM (inactive) | 16.2 µM (inactive) | 13.8 µM (inactive) |
| COC(=O)[C@@H]1CN(C(C)=O)C(=O)N1C(=O)OCc1ccccc1 | > 100 µM (inactive) | > 100 µM (inactive) | > 100 µM (inactive) | > 100 µM (inactive) | > 100 µM (inactive) | > 100 µM (inactive) | > 100 µM (inactive) | > 100 µM (inactive) | > 100 µM (inactive) | > 100 µM (inactive) | > 100 µM (inactive) | > 100 µM (inactive) | > 100 µM (inactive) | > 100 µM (inactive) | > 100 µM (inactive) | > 100 µM (inactive) | > 100 µM (inactive) | > 100 µM (inactive) | > 100 µM (inactive) | > 100 µM (inactive) |
| Cc1ccnc(NS(=O)(=O)c2ccc(N=[N+]=[N-])cc2)n1 | > 100 µM (inactive) | > 100 µM (inactive) | > 21.4 µM (inactive) | > 100 µM (inactive) | > 100 µM (inactive) | > 100 µM (inactive) | > 100 µM (inactive) | > 100 µM (inactive) | > 100 µM (inactive) | > 100 µM (inactive) | > 100 µM (inactive) | > 100 µM (inactive) | > 100 µM (inactive) | > 100 µM (inactive) | > 100 µM (inactive) | > 100 µM (inactive) | > 100 µM (inactive) | > 100 µM (inactive) | > 100 µM (inactive) | > 100 µM (inactive) |
| Clc1ccc(CSCCc2ccncc2)cc1Cl | 17.2 µM (inactive) | 13.2 µM (inactive) | 20.6 µM (inactive) | 14.2 µM (inactive) | 15.8 µM (inactive) | 13.1 µM (inactive) | 20.8 µM (inactive) | > 10 µM (inactive) | 17.2 µM (inactive) | 22.6 µM (inactive) | 15.4 µM (inactive) | 21.9 µM (inactive) | 17 µM (inactive) | 15.8 µM (inactive) | 17.4 µM (inactive) | 17.8 µM (inactive) | 19.6 µM (inactive) | 26.3 µM (inactive) | 42.9 µM (inactive) | 35.9 µM (inactive) |
| O=C1/C(=C/c2c(Cl)[nH]c3ccccc23)c2ccccc2N1c1ccccc1 | 6.56 µM (inactive) | 10.4 µM (inactive) | 3.9 µM (inactive) | 1.79 µM (inactive) | 4.6 µM (inactive) | 9.44 µM (inactive) | 4.39 µM (inactive) | 3.66 µM (inactive) | 3.93 µM (inactive) | 1.64 µM (inactive) | 3.05 µM (inactive) | 11.9 µM (inactive) | 3.7 µM (inactive) | 3.36 µM (inactive) | 6.19 µM (inactive) | 9.84 µM (inactive) | 5.15 µM (inactive) | 3.37 µM (inactive) | 11.2 µM (inactive) | 11.6 µM (inactive) |
| Brc1ccc(/N=C/C=C(\Nc2ccc(Br)cc2)C23CC4CC(CC(C4)C2)C3)cc1 | 13.9 µM (inactive) | 14.1 µM (inactive) | 1.63 µM (inactive) | 9.62 µM (inactive) | 9.04 µM (inactive) | 13.6 µM (inactive) | 11.3 µM (inactive) | 1.91 µM (inactive) | 9.75 µM (inactive) | 5.11 µM (inactive) | 10.9 µM (inactive) | 14.7 µM (inactive) | 20 µM (inactive) | 8.73 µM (inactive) | 20.6 µM (inactive) | 29.6 µM (inactive) | 18.1 µM (inactive) | 8.07 µM (inactive) | 14.8 µM (inactive) | 16.6 µM (inactive) |
| CCOC(=O)Nc1nc(-c2ccccc2)c(C)s1 | > 100 µM (inactive) | > 100 µM (inactive) | 31.5 µM (inactive) | 96.6 µM (inactive) | 88.7 µM (inactive) | 11.7 µM (inactive) | 44.2 µM (inactive) | > 100 µM (inactive) | > 100 µM (inactive) | > 100 µM (inactive) | 28 µM (inactive) | > 100 µM (inactive) | > 100 µM (inactive) | > 100 µM (inactive) | > 100 µM (inactive) | > 100 µM (inactive) | > 100 µM (inactive) | 47.3 µM (inactive) | > 100 µM (inactive) | > 100 µM (inactive) |
| Cc1cc(NCCCCCCCCCC[n+]2c(C)cc(N)c3ccccc32)c2ccccc2n1 | 1.78 µM (inactive) | 2.08 µM (inactive) | 0.472 µM (active) | 0.346 µM (active) | 0.209 µM (active) | 1.83 µM (inactive) | 0.419 µM (active) | 0.546 µM (active) | 2.04 µM (inactive) | 1.01 µM (active) | 0.253 µM (active) | 4.1 µM (inactive) | 1.82 µM (inactive) | 1.87 µM (inactive) | 0.733 µM (active) | 0.427 µM (active) | 1.84 µM (inactive) | 0.333 µM (active) | 1.82 µM (inactive) | 0.216 µM (active) |
